Tested on: Saccharomyces cerevisiae ABC16-Green Monster
Conditions: 18 h; 30 °C; YPD
Method: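 Growth inhibition of the drug-sensitive S. cerevisiae ABC16-Green Monster strain (16 ABC transporters deleted) in YPD at 30 °C for 18 h. […] dilution series […] in biological replicates; IC50 from OD600 (18 h minus 0 h) fitted by variable-slope nonlinear regression in GraphPad Prism. Library compounds were first screened at 150 µM, and only those with at least 70% inhibition went to dose-response; the rest are marked inactive.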

| Compound | IC50 growth inhibition [µM] |
| --- | --- |
| OC1=C2C(=Nc3ccccc3SC2c2ccccc2)c2ccccc21 (configuration not stated) [GNF-Pf-4583] | 2.54 |
| O=C1NC(=O)C(c2cnc3ccccn23)=C1c1cn2c3c(cc(F)cc13)CN(C(=O)N1CCCCC1)CC2 | > 75 |
| CCC(=C(CC)c1ccc(O)cc1)c1ccc(O)cc1 [Diethylstilbestrol] | 5.86 |
| CNC1CCC(c2ccc(Cl)c(Cl)c2)c2ccccc21.Cl (configuration not stated) [Sertraline] | 13.4 |
| Cc1cc(C(=O)NCCc2cccc(F)c2)c(C)n1C(C)C | 20.7 |
| O=C(Nc1cccc(C(F)(F)F)c1)c1cc(Cl)ccc1O | 4.18 |
| COc1ccc(Nc2nc(NCc3ccccc3)c3ccccc3n2)cc1 | 7.72 |
| Cc1cc(C)n(-c2ccc(CN3c4ccc(S(N)(=O)=O)cc4CC3C)cc2)n1 (configuration not stated) | 129 |
| O=C(Nc1nc(-c2ccccn2)cs1)C1CC1c1ccccc1F (configuration not stated) | 6.32 |
| CCN1C(=Cc2cc(C)[n+](CCCN3CCOCC3)c(C)c2)Sc2ccccc21 | 55.3 |
| Cc1nc2ncnn2c(N2CCc3ccccc3C2)c1Cl | 84.8 |
| CCCCCCCCCCCCCCCCOP(=O)([O-])OCC[N+](C)(C)C [Miltefosine] | 9.3 |
| Cc1[nH]c2ccccc2c1C(c1cccs1)N1CCN(C)CC1 (configuration not stated) | 35.9 |
| CC1=Nn2cc(-c3ccccc3)nc2SC1c1ccccc1 (configuration not stated) | 64.2 |
| O=C1N=c2ccccc2=C1NNC(=S)N1CCOCC1 | 16.4 |
| Cc1nc([P+](c2ccccc2)(c2ccccc2)c2ccccc2)c(SCc2ccccc2)o1 [GNF-Pf-3891] | 5.85 |
| CCCCCCC(O)(c1ccc(F)cc1)C(CN1CCOCC1)c1ccccc1 (configuration not stated) | 17.3 |
| CC(=O)Nc1cccc(-n2c(=O)n(C3CC3)c(=O)c3c(Nc4ccc(I)cc4F)n(C)c(=O)c(C)c32)c1 [Trametinib] | > 75 |
| CCC(C(C)O)n1ncn(-c2ccc(N3CCN(c4ccc(OCC5COC(Cn6cncn6)(c6ccc(F)cc6F)C5)cc4)CC3)cc2)c1=O (configuration not stated) [Posaconazole] | 0.71 |
| Oc1c(I)cc(I)c2cccnc12 [Iodoquinol] | 5.5 |
| Cc1c(C)n(CCCN(C)C)c2ncn3nc(-c4ccc(N(C)C)cc4)nc3c12 | 42.3 |

| Compound | IC50 growth inhibition [µM] |
| --- | --- |
| Cc1cc(C(=O)NCCSc2ccccc2)c(C)n1C(C)C | 60.5 |
| CC1C=CC=CC=CC=CC=CC=CC=CC(OC2OC(C)C(O)C(N)C2O)CC2OC(O)(CC(O)CC(O)C(O)CCC(O)CC(O)CC(=O)OC(C)C(C)C1O)CC(O)C2C(=O)O (configuration not stated) [Amphotericin B] | 63.3 |
| COc1cc(-c2cc(-c3ccc(S(C)(=O)=O)cc3)cnc2N)ccc1O | 22 |
| Nc1nc(F)nc2c1ncn2C1OC(CO)C(O)C1O (configuration not stated) [Fludarabine] | > 75 |
| CN1CCN(S(=O)(=O)c2ccc(-c3ccc4c(Nc5ncc(Cl)cn5)ccnc4c3)cc2)CC1 | 43.4 |
| Nc1ccc2ncnc(Nc3ccc(OCc4cccc(F)c4)c(Cl)c3)c2c1 | 18.7 |
| CNCCC(Oc1ccc(C(F)(F)F)cc1)c1ccccc1 (configuration not stated) | 48.3 |
| COc1ccccc1C(C)NCC(=O)Nc1cc(C(F)(F)F)ccc1Cl (configuration not stated) | 32.4 |
| OCCN1CCN(CCCN2c3ccccc3Sc3ccc(C(F)(F)F)cc32)CC1 [Fluphenazine] | 30.1 |
| Cc1cc(Cl)ccc1OCc1nnc(-c2ccccn2)[nH]1 | 20.7 |
| Cn1ncc2c(NCc3ccc(-c4ccc(Cl)cc4)o3)ncnc21 | 61.9 |
| CS(=O)(=O)Nc1nc(-c2ccccn2)nc2scc(-c3ccccc3)c12 | 13.8 |
| Cc1cc(C(=O)NNC(=O)c2c(C)nc3ccccn23)c2nc3n(c2n1)CCCCC3 | 41.8 |
| O=C1N(Cc2cc3ccccc3s2)CC2CN(Cc3ccccc3)CCN12 (configuration not stated) | 30.2 |
| C/C=C/[C@H]1O[C@@](O)([C@@H](C)[C@H](O)[C@H](C)[C@H]2OC(=O)/C(OC)=C\C(C)=C\[C@@H](C)[C@@H](O)[C@@H](CC)[C@@H](O)[C@H](C)C/C(C)=C/C=C/[C@@H]2OC)C[C@@H](O[C@H]2C[C@@H](O)[C@H](OC(=N)O)[C@@H](C)O2)[C@@H]1C [Concanamycin A] | 6.1 |
| Oc1ccc(C(=C(Cl)Cl)c2ccc(O)cc2)cc1 | 6.96 |
| CCS(=O)(=O)N1CCN(c2ccc(Nc3ncc(C(N)=O)c(NC4CC4)n3)cc2)CC1 [Cerdulatinib] | 8.06 |
| O=C(C(Cc1c[nH]c2ccccc12)NS(=O)(=O)c1ccc(Cl)cc1)N1CCCCC1 (configuration not stated) | 42.4 |
| CN(C)CCC=C1c2ccccc2CCc2ccccc21 [Amitriptyline] | 56.8 |
| COc1ccc(Cn2cnc3c(-c4ccco4)nc(Cl)nc32)cc1 | 51.6 |
| COc1ccc(Nc2nc(Nc3ccc(C)cc3)nc(Sc3nc4ccccc4[nH]3)n2)cc1 [CBR499] | 2.31 |

| Compound | IC50 growth inhibition [µM] |
| --- | --- |
| CN1CCC(NCc2cccc(-c3ccc(S(=O)(=O)NCc4ccccc4)cc3)c2)CC1 | 50.8 |
| C[C@@H]1COCCN1c1cc(C2(S(C)(=O)=O)CC2)nc(-c2cccc3[nH]ccc23)n1 [AZ-20] | > 75 |
| CN(CC1COc2ccccc2O1)C(=O)Nc1nc2ccccc2s1 (configuration not stated) | 48 |
| c1ccc(-c2nc(NC3CCCCC3)cc(C3CC3)n2)nc1 | 44.5 |
| CC(C)c1ccc(/C=C2\CCc3c2nc2ccccc2c3C(=O)O)cc1 | 19.9 |
| O=C1c2ccccc2C2=Nc3ccccc3SC(c3cccc(F)c3)C12 (configuration not stated) | 1.68 |
| CCOC(=O)NC(=O)c1ccsc1NC(=O)c1nc2ccccc2s1 | 34.6 |
| COC1C(OC(N)=O)C(O)C(Oc2ccc3c(O)c(NC(=O)c4ccc(O)c(CC=C(C)C)c4)c(=O)oc3c2C)OC1(C)C (configuration not stated) [Novobiocin] | > 75 |
| C[C@H]1CC[C@H](n2c3cnccc3c3cnc(Nc4ccc5c(n4)CCN(C(=O)CO)C5)nc32)CC1 [AMG 925] | > 75 |
| CCc1c(C(=O)Nc2nc(C)cs2)cnn1-c1cccc(Cl)c1 | 30.5 |
| O=C(NCCc1ccccc1)c1cc(-c2cccnc2)cnc1NCC1CC1 | 15.9 |
| CC1(C)C=Cc2cc(C(=N)NOC(=O)c3ccccc3)ccc2O1 | 4.33 |
| CN1CCN(CCCN2c3ccccc3Sc3ccc(Cl)cc32)CC1 [Prochlorperazine] | 28.6 |
| CC(C)(C)C(O)C(Oc1ccc(-c2ccccc2)cc1)n1cncn1 (configuration not stated) | 70 |
| O=C(Nc1ccc2oc(-c3cccc4ccccc34)nc2c1)c1ccc([N+](=O)[O-])o1 [GNF-PF-2740] | 0.941 |
| OCc1ccc(-c2cncc(Nc3cccc(Cl)c3)c2)cc1 | 6.31 |
| N#Cc1c(N2CCCC2)nn(C(=O)Nc2ccc(Cl)c(Cl)c2)c1N | 4.53 |
| CC1CC(C)C(=O)C(C(O)CC2CC(=O)NC(=O)C2)C1 (configuration not stated) [Cycloheximide] | 0.0378 |
| CC1CCC2C(C)C(O)OC3OC4(C)CCC1C32OO4 (configuration not stated) [Dihydroartemisinin] | > 75 |
| COc1ccc(-c2nnc3ccc(-c4cccc(C(C)C)c4)cn23)cc1OC | 52.3 |
| O=C(c1ccco1)N(CCCn1ccnc1)c1nc2c(Cl)cccc2s1 | 40.8 |

| Compound | IC50 growth inhibition [µM] |
| --- | --- |
| N=C(N)c1ccc(OCCCCCOc2ccc(C(=N)N)cc2)cc1 [Pentamidine] | 85.9 |
| COC(=O)Nc1nc2cc(C(=O)c3ccccc3)ccc2[nH]1 | 58.4 |
| OC(CNC1CCCCC1)Cn1c2ccc(I)cc2c2cc(I)ccc21 (configuration not stated) | 3.98 |
| Fc1ccc2[nH]c3c(N4CCN(C(c5ccccc5)c5ccccc5)CC4)ncnc3c2c1 [GNF-Pf-2775] | 0.723 |
| N#C/C(=N\Nc1cc(C(F)(F)F)cc(C(F)(F)F)c1)S(=O)(=O)c1cccs1 | 99 |
| CC(C)=CCC/C(C)=C\CNCCNC1C2CC3CC(C2)CC1C3 (configuration not stated) | 18.2 |
| CSc1ccccc1C(=O)Nc1nc(-c2ccccn2)cs1 | 10.8 |
| CC(=O)NCC1CN(c2ccc(N3CCSCC3)c(F)c2)C(=O)O1 (configuration not stated) [Sutezolid] | > 75 |
| N#CC(c1ccc(Cl)cc1)c1c(Cl)cc(-n2ncc(=O)[nH]c2=O)cc1Cl (configuration not stated) [Diclazuril] | 68.5 |
| O=C(Nc1ccc([N+](=O)[O-])cc1Cl)c1cc(Cl)ccc1O [Niclosamide] | 1.53 |
| Cc1ccc(CNc2ncnc3sccc23)cc1 | 13.4 |
| Cc1cc(NC(C)C)n2ncc(-c3ccc(F)cc3)c2n1 | 90.7 |
| COc1ccc(C2CC(=O)C3=C(C2)NC(C)=C(C(=O)OC2CCCC2)C3c2ccc([N+](=O)[O-])cc2)cc1OC (configuration not stated) [GNF-Pf-5639] | 9.8 |
| CC(=O)N(C1=C(N2CCOCC2)C(=O)c2ccccc2C1=O)c1ccc(I)cc1 [GNF-Pf-3703] | 7.31 |
| CSc1nc2cc(Oc3cccc(Cl)c3Cl)c(Cl)cc2[nH]1 [Triclabendazole] | 6.29 |
| Cc1cc(F)c(C(=O)Nc2cccc(-c3nncn3C(C)C)n2)cc1-n1cnc(C2CC2)c1 [GS-4997] | > 75 |
| Cc1nn2c(=O)cc(-c3ccccc3)[nH]c2c1-c1ccc(F)cc1 | 39 |
| CC1N(C)c2ccc(/C=C/c3cc[n+](C)cc3)cc2C1(C)C (configuration not stated) | 55.2 |
| COC1C=COC2(C)Oc3c(C)c(O)c4c(c3C2=O)C(=O)C(=CNN2CCN(C)CC2)C(=C4O)NC(=O)C(C)=CC=CC(C)C(O)C(C)C(O)C(C)C(OC(C)=O)C1C (configuration not stated) [Rifampicin] | > 75 |
